According to US20240208954A1, “OXADIAZOLE COMPOUND, PREPARATION METHOD THEREFOR, PHARMACEUTICAL COMPOSITION AND USE THEREOF” (SHANGHAI INSTITUTE OF MATERIA MEDICA, CHINESE ACADEMY OF …, priority 2020, published 2024):
Values joined by “and” are separate entries in the source; they are usually repeats but may differ in a detail not shown here. Identical values can stand only once. “Also recorded” adds a separate entry of the source.

How the values were obtained:
[1] = Preliminary evaluation of pharmacokinetics in Beagle dogs; format: in vivo
[2] = system: GAN diet-induced NASH mouse model; assay: In vivo anti-obesity, insulin resistance, NASH pharmacological activity test; set-up: species or system C57BL/6 mice
Text: In this experiment, we investigated the effects of long-term oral administration of compound A1 on obesity, insulin resistance, hepatic lipid accumulation, inflammation and fibrosis in mice with a triple phenotype of obesity, insulin resistance and NASH induced by high fat, high cholesterol and high fructose (Gubra amylin, GAN).
Animal experiment: Male C57BL/6 mice were fed with GAN diet to induce the NASH model, and 12 weeks after modeling, the mice were randomly divided into 3 groups: low-fat diet control group (LFD, n=6), model control group (Model, n=10), and A1 group (10 mg/kg, n=10), and administered by gavage at a dose of 10 mg/kg and a volume of 10 mL/kg, once a day. During the period of administration, the food intake and body weight of animals were monitored; after 10 weeks of administration, glucose tolerance test (GTT) and insulin tolerance test (ITT) were performed; after 11 weeks of administration, fasting glucose and insulin were measured; after 12 weeks of administration, core body temperature and energy metabolism were measured; after 15 weeks of administration, body composition of mice was measured, and mice were sacrificed by dislocation after blood sampling via the posterior ocular venous plexus, and liver, subcutaneous fat, epididymal fat and brown fat were weighed, part the liver was fixed in 4% paraformaldehyde, and all tissues and serum were stored at −80° C. This experiment evaluated whether the compounds have the effect of weight loss by detecting energy metabolism, body composition, and fat weight of mice; whether the compounds have the effect of improving insulin resistance by GTT, ITT, detecting random blood glucose, fasting blood glucose and fasting insulin, and calculating HOMA-IR index; whether the compounds have the effect of […] by detecting serum liver function indexes ALT, AST, triglyceride, total cholesterol (T-CHO), LDL-C, HDL-C levels in serum, triglyceride, T-CHO, and hydroxyproline (characteristic amino acids of collagen) levels in liver, and by measuring mRNA expression levels of fatty acid ab initio synthesis and transport related genes (Srebp1c, Sed1, Fasn, Acaca, Cd36),β-oxidative metabolic pathways (Ppara, Cyp4A1,Cpt1b,Acot1,Acox1), inflammation related genes (Tnfa, Il1b, Casp1, Nlrp3, Pycard, Panx1, Cel2, Cel3) and fibrosis-related genes (Asma, Tgfb, Col1A1, Col3A1 , Col4A1 , Col4a2, Col5a2) and liver pathological changes (H&E staining, Oil Red O staining and Sirius Scarlet staining) and other indicators to evaluate whether the compounds have the effect of alleviating the disorder of lipid metabolism, inflammation and fibrosis in the pathological state of NASH.

[3] = dog, in vivo, Beagle dogs, intravenous 0.5 mg/kg, mean
[4] = 10 mg/kg gavage once a day, 15 weeks
[5] = 10 mg/kg gavage once a day, after 10 weeks
[6] = 10 mg/kg gavage once a day, after 11 weeks
[7] = 10 mg/kg gavage once a day, vs Model group
[8] = H&E-stained liver pathology sections, 10 mg/kg
[9] = liver, 10 mg/kg gavage once a day
[10] = overall statement, long-term administration

Compound: CC(C)Oc1ccc(-c2nc(-c3ccc(CN4CC(C(=O)O)C4)c4ccccc34)no2)cc1C#N.Cl [Compound A1, 1-((4-(5-(3-cyano-4-isopropoxyphenyl)-1,2,4-oxadiazol-3-yl)naphthalen-1-yl)methyl) azetidine-3-carboxylic acid hydrochloric acid]
- AUC0-t ([1]; dog, in vivo, po, Beagle dogs, intragastric 3 mg/kg, mean, read-out: AUC0-t): 1160 ng·h/mL
- Cmax ([1]; dog, in vivo, po, Beagle dogs, intragastric 3 mg/kg, mean, read-out: Cmax): 366 ng/mL
- clearance [1, 3]: 23.3 mL/min/kg
- half-life [1, 3]: 59 min
- Vd ([1]; dog, in vivo, Beagle dogs, intravenous 0.5 mg/kg, mean, read-out: Vss): 1.28 L/kg
- bioavailability ([1]; dog, plasma, oral, Beagle dogs, 3 mg/kg by gavage vs 0.5 mg/kg intravenous, read-out: absolute bioavailability): 54%
- Plasma drug concentration in Beagle dogs ([1]; intragastric 3 mg/kg, 0.25 h, individual animals 4-6, listed as DC411151): 539 ng/mL and 93.3 ng/mL and 11.2 ng/mL
- Plasma drug concentration in Beagle dogs ([1]; intragastric 3 mg/kg, 0.5 h, individual animals 4-6, listed as DC411151): 444 ng/mL and 153 ng/mL and 188 ng/mL
- Plasma drug concentration in Beagle dogs ([1]; intragastric 3 mg/kg, 1 h, individual animals 4-6, listed as DC411151): 193 ng/mL and 318 ng/mL
- Plasma drug concentration in Beagle dogs ([1]; intragastric 3 mg/kg, 2 h, individual animals 4-6, listed as DC411151): 242 ng/mL and 266 ng/mL
- Plasma drug concentration in Beagle dogs ([1]; intragastric 3 mg/kg, 3 h, individual animals 4-6, listed as DC411151): 143 ng/mL and 269 ng/mL
- Plasma drug concentration in Beagle dogs ([1]; intragastric 3 mg/kg, 4 h, individual animals 4-6, listed as DC411151): 151 ng/mL and 62.7 ng/mL and 118 ng/mL
- Plasma drug concentration in Beagle dogs ([1]; intragastric 3 mg/kg, 6 h, individual animals 4-6, listed as DC411151): 90.3 ng/mL and 24.0 ng/mL and 64.0 ng/mL
- Plasma drug concentration in Beagle dogs ([1]; intragastric 3 mg/kg, 8 h, individual animals 4-6, listed as DC411151): 12.0 ng/mL and 4.87 ng/mL and 15.6 ng/mL
- Plasma drug concentration in Beagle dogs ([1]; intragastric 3 mg/kg, 24 h, individual animals 4-6): BQL
- Plasma drug concentration in Beagle dogs ([1]; intravenous 0.5 mg/kg, 0.083 h, individual animals 1-3, listed as DC411151, 0.5 mg/kg): 554 ng/mL and 537 ng/mL
- Plasma drug concentration in Beagle dogs ([1]; intravenous 0.5 mg/kg, 0.25 h, individual animals 1-3, listed as DC411151, 0.5 mg/kg): 219 ng/mL and 340 ng/mL
- Plasma drug concentration in Beagle dogs ([1]; intravenous 0.5 mg/kg, 0.5 h, individual animals 1-3, listed as DC411151, 0.5 mg/kg): 138 ng/mL and 176 ng/mL
- Plasma drug concentration in Beagle dogs ([1]; intravenous 0.5 mg/kg, 1 h, individual animals 1-3, listed as DC411151, 0.5 mg/kg): 76.9 ng/mL and 97.1 ng/mL
- Plasma drug concentration in Beagle dogs ([1]; intravenous 0.5 mg/kg, 2 h, individual animals 1-3, listed as DC411151, 0.5 mg/kg): 27.8 ng/mL and 35.4 ng/mL
- Plasma drug concentration in Beagle dogs ([1]; intravenous 0.5 mg/kg, 3 h, individual animals 1-3, listed as DC411151, 0.5 mg/kg): 12.5 ng/mL and 20.3 ng/mL
- Plasma drug concentration in Beagle dogs ([1]; intravenous 0.5 mg/kg, 4 h, individual animals 1-3, listed as DC411151, 0.5 mg/kg): 7.88 ng/mL and 10.6 ng/mL
- Plasma drug concentration in Beagle dogs ([1]; intravenous 0.5 mg/kg, 6 h, individual animals 1-3, listed as DC411151, 0.5 mg/kg): 1.64 ng/mL and 2.47 ng/mL
- Plasma drug concentration in Beagle dogs ([1]; intravenous 0.5 mg/kg, 8 h, individual animals 1-3, listed as DC411151, 0.5 mg/kg): BQL and 1.05 ng/ml and 0.496 ng/ml
- HOMA-IR index ([2]; 10 mg/kg gavage once a day): significantly reduced
- energy metabolism and thermogenesis ([2]; 10 mg/kg gavage once a day): increasing energy metabolism and promoting thermogenesis
- food intake ([2]; 10 mg/kg gavage once a day): without affecting
- liver T-CHO [2, 4]: significantly reduced
- liver hydroxyproline [2, 4]: significantly reduced
- liver triglycerides [2, 4]: significantly reduced
- liver weight [2, 4]: significantly reduced
- liver-to-body ratio [2, 4]: significantly reduced
- serum ALT [2, 4]: significantly reduced
- serum AST [2, 4]: significantly reduced
- serum HDL-C [2, 4]: significantly reduced
- serum LDL-C [2, 4]: significantly reduced
- serum T-CHO [2, 4]: significantly reduced
- serum triglycerides [2, 4]: significantly reduced
- glucose tolerance (GTT) [2, 5]: significantly improved
- insulin sensitivity (ITT) [2, 5]: significantly improved
- fasting glucose [2, 6]: significantly reduced
- fasting insulin [2, 6]: significantly reduced
- body fat content [2, 7]: reduced
- body weight gain [2, 7]: significantly slowed down
- NAS scores [2, 8]: significantly decreased
- lipid accumulation in the liver [2, 8]: ameliorating (but not significant) effect
- liver ballooning degeneration and inflammation [2, 8]: significantly alleviated
- liver lipid accumulation ([2]; Oil Red O stained sections, mainly by reducing lipid droplet size, 10 mg/kg): significantly reduced
- liver collagen deposition ([2]; Sirius Scarlet stained sections, 10 mg/kg): significantly reduced
- mRNA expression of fatty acid oxidation-related genes (Ppara, Cyp4A1, Acot1, Acox1) [2, 9]: significantly upregulated
- mRNA expression of fibrosis-related genes (Asma, Tgfb, Col1A1, Col3A1, Col5a2) [2, 9]: downregulated
- mRNA expression of inflammation genes (Tnfa, Il1b, Casp1, Pycard, Ccl2, Ccl3) [2, 9]: downregulated
- serological and hepatic biochemical indexes ([2]; overall statement, FIG. 3): improved
- hepatic lipid metabolism disorders, inflammation and fibrosis ([2]; overall statement, FIG. 4): improved
- effect on NASH [2, 10]: significant alleviating effect
- insulin resistance (symptoms) [2, 10]: significantly alleviate; also recorded: alleviated
- obesity (symptoms) [2, 10]: significantly alleviate; also recorded: alleviated
